Key:
ragweed [1] = test: Test C postemergence; type: in vivo, Ambrosia artemisiifolia; settings: postemergence, 10 days
How it was run: (§1)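 Soil-applied (pre) and foliar (post, 1–2 leaf, 2–10 cm) sprays; surfactant-containing non-phytotoxic solvent vehicle; loam/sand substrate. Readout: visual % control at 10 d, greenhouse, versus untreated.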

soybean [2] = test: Test C preemergence; type: in vivo, Glycine max; settings: preemergence, 0 to 100 scale (0 no effect, 100 complete control)
How it was run: as §1

kochia [3] = test: Test C postemergence; type: in vivo, Bassia scoparia; settings: postemergence, 10 days
How it was run: as §1

ryegrass, Italian [4] = test: Test C postemergence; type: in vivo, Lolium multiflorum; settings: postemergence, 10 days
How it was run: as §1

kochia [5] = test: Test C preemergence; type: in vivo, Bassia scoparia; settings: preemergence, 0 to 100 scale (0 no effect, 100 complete control)
How it was run: as §1

blackgrass [6] = test: Test C preemergence; type: in vivo, Alopecurus myosuroides; settings: preemergence, 0 to 100 scale (0 no effect, 100 complete control)
How it was run: as §1

pigweed, palmer [7] = test: Test C postemergence; type: in vivo, Amaranthus palmeri; settings: postemergence, 10 days
How it was run: as §1

galium = test: Test C postemergence; type: in vivo, Galium aparine; settings: postemergence, 10 days
How it was run: as §1

rice = test: Test D flooded paddy test; type: in vivo, Oryza sativa; settings: 250 g ai/ha, applied to paddy water, visual rating after 13 to 14 days, scale 0 to 100 (0 no effect, 100 complete control)
How it was run: (§2)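 At the 2-leaf stage, floodwater 3 cm deep received the test compound; that depth persisted throughout. Plants scored visually 13 to 14 days on, 0 (no effect) to 100 (complete control), dash indicating no result.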

foxtail, giant [8] = test: Test C preemergence; type: in vivo, Setaria faberi; settings: preemergence, 0 to 100 scale (0 no effect, 100 complete control)
How it was run: as §1

blackgrass [9] = test: Test C postemergence; type: in vivo, Alopecurus myosuroides; settings: postemergence, 10 days
How it was run: as §1

oat, wild [10] = test: Test C postemergence; type: in vivo, Avena fatua; settings: postemergence, 10 days
How it was run: as §1

horseweed = test: Test C postemergence; type: in vivo, Erigeron canadensis; settings: postemergence, 10 days
How it was run: as §1

corn [11] = test: Test C preemergence; type: in vivo, Zea mays; settings: preemergence, 0 to 100 scale (0 no effect, 100 complete control)
How it was run: as §1

ryegrass, Italian [12] = test: Test C preemergence; type: in vivo, Lolium multiflorum; settings: preemergence, 0 to 100 scale (0 no effect, 100 complete control)
How it was run: as §1

goosegrass [13] = test: Test C postemergence; type: in vivo, Eleusine indica; settings: postemergence, 10 days
Source text: (§3) Seeds of plant species selected from barnyardgrass (Echinochloa crusgalli), blackgrass (Alopecurus myosuroides), corn (Zea mays), foxtail, giant (giant foxtail, Setaria faberi), green foxtail (Setaria viridis), goosegrass (Eleusine indica), kochia (Bassia scoparia), oat, wild (wild oat, Avena fatua), pigweed, palmer (palmer amaranth, palmer pigweed, Amaranthus palmeri), Pigweed, Redroot (redroot pigweed, Amaranthus retroflexus), ragweed (common ragweed, Ambrosia artemisiifolia), ryegrass, Italian ([…] ryegrass, Lolium multiflorum), soybean (Glycine max), and wheat (Triticum aestivum) were planted into a blend of loam soil and sand and treated preemergence with a directed soil spray using test chemicals formulated in a non-phytotoxic solvent mixture which included a surfactant. At the same time, plants selected from these crops and weed species and also galium (catchweed bedstraw, Galium aparine) and horseweed (Erigeron canadensis) were planted in pots containing the same blend of loam soil and sand and treated with postemergence applications of test chemicals formulated in the same manner. Plants ranged in height from 2 to 10 cm and were in the one- to two-leaf stage for the postemergence treatment. Treated plants and untreated controls were maintained in a greenhouse for 10 days, after which time all treated plants were compared to untreated controls and visually evaluated for injury. Plant response ratings, summarized in Table C, are based on a 0 to 100 scale where 0 is no effect and 100 is complete control. A dash (-) response means no test result.

wheat [14] = test: Test C preemergence; type: in vivo, Triticum aestivum; settings: preemergence, 0 to 100 scale (0 no effect, 100 complete control)
How it was run: as §1

pigweed, palmer [15] = test: Test C preemergence; type: in vivo, Amaranthus palmeri; settings: preemergence, 0 to 100 scale (0 no effect, 100 complete control)
How it was run: as §1

ducksalad = test: Test D flooded paddy test; type: in vivo, Heteranthera limosa; settings: 250 g ai/ha, applied to paddy water, visual rating after 13 to 14 days, scale 0 to 100 (0 no effect, 100 complete control)
How it was run: as §2

barnyardgrass = test: Test D flooded paddy test; type: in vivo, Echinochloa crus-galli; settings: 250 g ai/ha, applied to paddy water, visual rating after 13 to 14 days, scale 0 to 100 (0 no effect, 100 complete control)
How it was run: as §2

sedge, umbrella = test: Test D flooded paddy test; type: in vivo, Cyperus difformis; settings: 250 g ai/ha, applied to paddy water, visual rating after 13 to 14 days, scale 0 to 100 (0 no effect, 100 complete control)
How it was run: as §2

goosegrass [16] = test: Test C preemergence; type: in vivo, Eleusine indica; settings: preemergence, 0 to 100 scale (0 no effect, 100 complete control)
Source text: as §3

soybean [17] = test: Test C postemergence; type: in vivo, Glycine max; settings: postemergence, 10 days
How it was run: as §1

oat, wild [18] = test: Test C preemergence; type: in vivo, Avena fatua; settings: preemergence, 0 to 100 scale (0 no effect, 100 complete control)
How it was run: as §1

corn [19] = test: Test C postemergence; type: in vivo, Zea mays; settings: postemergence, 10 days
How it was run: as §1

wheat [20] = test: Test C postemergence; type: in vivo, Triticum aestivum; settings: postemergence, 10 days
How it was run: as §1

ragweed [21] = test: Test C preemergence; type: in vivo, Ambrosia artemisiifolia; settings: preemergence, 0 to 100 scale (0 no effect, 100 complete control)
How it was run: as §1

foxtail, giant [22] = test: Test C postemergence; type: in vivo, Setaria faberi; settings: postemergence, 10 days
How it was run: as §1

[23] = 125 g ai/ha, 0 to 100 scale, 0 no effect, 100 complete control
[24] = 500 g ai/ha, 0 to 100 scale (0 no effect, 100 complete control)

Cc1cccc2c1O[C@@H](C)CN2C(=O)c1cccc(-n2cnc(C#C[Si](C)(C)C)n2)c1 [Compound 284]
Plant response rating, Ragweed (ragweed [1]; [23]): 0
Plant response rating, Ragweed (ragweed [1]; [24]): 0
Soybean plant response rating (soybean [2]; 500 g ai/ha): 0
Soybean plant response rating (soybean [2]; Test C, 125 g ai/ha): 0
Plant response rating, Kochia (kochia [3]; [23]): 10
Plant response rating, Kochia (kochia [3]; [24]): 50
Plant response rating, Ryegrass, Italian (ryegrass, Italian [4]; [23]): 0
Plant response rating, Ryegrass, Italian (ryegrass, Italian [4]; [24]): 0
Kochia plant response rating (kochia [5]; 500 g ai/ha): 10
Kochia plant response rating (kochia [5]; Test C, 125 g ai/ha): 0
Blackgrass plant response rating (blackgrass [6]; 500 g ai/ha): 60
Blackgrass plant response rating (blackgrass [6]; Test C, 125 g ai/ha): 0
Plant response rating, Pigweed, Palmer (pigweed, palmer [7]; [23]): 40
Plant response rating, Pigweed, Palmer (pigweed, palmer [7]; [24]): 60
Plant response rating, Galium (galium; [23]): 70
Plant response rating, Galium (galium; [24]): 90
Plant response rating, Rice (Flood) (rice): 0
Foxtail, Giant plant response rating (foxtail, giant [8]; 500 g ai/ha): 90
Foxtail, Giant plant response rating (foxtail, giant [8]; Test C, 125 g ai/ha): 0
Plant response rating, Blackgrass (blackgrass [9]; [23]): 0
Plant response rating, Blackgrass (blackgrass [9]; [24]): 40
Plant response rating, Oat, Wild (oat, wild [10]; [23]): 10
Plant response rating, Oat, Wild (oat, wild [10]; [24]): 10
Plant response rating, Horseweed (horseweed; [23]): 0
Plant response rating, Horseweed (horseweed; [24]): 50
Corn plant response rating (corn [11]; 500 g ai/ha): 0
Corn plant response rating (corn [11]; Test C, 125 g ai/ha): 0
Ryegrass, Italian plant response rating (ryegrass, Italian [12]; 500 g ai/ha): 90
Ryegrass, Italian plant response rating (ryegrass, Italian [12]; Test C, 125 g ai/ha): 50
Plant response rating, Goosegrass (goosegrass [13]; [23]): 10
Plant response rating, Goosegrass (goosegrass [13]; [24]): 30
Wheat plant response rating (wheat [14]; 500 g ai/ha): 10
Wheat plant response rating (wheat [14]; Test C, 125 g ai/ha): 0
Pigweed, Palmer plant response rating (pigweed, palmer [15]; 500 g ai/ha): 0
Pigweed, Palmer plant response rating (pigweed, palmer [15]; Test C, 125 g ai/ha): 0
Plant response rating, Ducksalad (Flood) (ducksalad): 65
Plant response rating, Barnyardgrass (Flood) (barnyardgrass): 0
Plant response rating, Sedge, Umbrella (Flood) (sedge, umbrella): 0
Goosegrass plant response rating (goosegrass [16]; 500 g ai/ha): 90
Goosegrass plant response rating (goosegrass [16]; Test C, 125 g ai/ha): 10
Plant response rating, Soybean (soybean [17]; [23]): 20
Plant response rating, Soybean (soybean [17]; [24]): 30
Oat, Wild plant response rating (oat, wild [18]; 500 g ai/ha): 70
Oat, Wild plant response rating (oat, wild [18]; Test C, 125 g ai/ha): 20
Plant response rating, Corn (corn [19]; [23]): 0
Plant response rating, Corn (corn [19]; [24]): 10
Plant response rating, Wheat (wheat [20]; [23]): 10
Plant response rating, Wheat (wheat [20]; [24]): 10
Ragweed plant response rating (ragweed [21]; 500 g ai/ha): 0
Ragweed plant response rating (ragweed [21]; Test C, 125 g ai/ha): 0
Plant response rating, Foxtail, Giant (foxtail, giant [22]; [23]): 10
Plant response rating, Foxtail, Giant (foxtail, giant [22]; [24]): 20

CC1Oc2ccccc2N(C(=O)c2cccc(-n3cncn3)c2)C1C (stereo not drawn) [Compound 285]
Plant response rating, Ragweed (ragweed [1]; [23]): 0
Plant response rating, Ragweed (ragweed [1]; [24]): 0
Soybean plant response rating (soybean [2]; 500 g ai/ha): 0
Soybean plant response rating (soybean [2]; Test C, 125 g ai/ha): 0
Plant response rating, Kochia (kochia [3]; [23]): 0
Plant response rating, Kochia (kochia [3]; [24]): 0
Plant response rating, Ryegrass, Italian (ryegrass, Italian [4]; [23]): 0
Plant response rating, Ryegrass, Italian (ryegrass, Italian [4]; [24]): 0
Blackgrass plant response rating (blackgrass [6]; 500 g ai/ha): 0
Blackgrass plant response rating (blackgrass [6]; Test C, 125 g ai/ha): 0
Plant response rating, Pigweed, Palmer (pigweed, palmer [7]; [23]): 0
Plant response rating, Pigweed, Palmer (pigweed, palmer [7]; [24]): 0
Plant response rating, Galium (galium; [23]): 0
Plant response rating, Galium (galium; [24]): 30
Plant response rating, Rice (Flood) (rice): 0
Foxtail, Giant plant response rating (foxtail, giant [8]; 500 g ai/ha): 0
Foxtail, Giant plant response rating (foxtail, giant [8]; Test C, 125 g ai/ha): 0
pest or weed control at 125 g/ha (blackgrass [9]; Alopecurus myosuroides, post-emergence, 240 h, 125 g ai/ha, 0 to 100 scale (0 no effect, 100 complete control), read-out: Plant response rating, Blackgrass): 0%
pest or weed control at 500 g/ha (blackgrass [9]; Alopecurus myosuroides, post-emergence, 240 h, 500 g ai/ha, 0 to 100 scale (0 no effect, 100 complete control), read-out: Plant response rating, Blackgrass): 0%
Plant response rating, Oat, Wild (oat, wild [10]; [23]): 0
Plant response rating, Oat, Wild (oat, wild [10]; [24]): 0
Plant response rating, Horseweed (horseweed; [23]): 0
Plant response rating, Horseweed (horseweed; [24]): 0
Corn plant response rating (corn [11]; 500 g ai/ha): 0
Corn plant response rating (corn [11]; Test C, 125 g ai/ha): 0
Ryegrass, Italian plant response rating (ryegrass, Italian [12]; 500 g ai/ha): 30
Ryegrass, Italian plant response rating (ryegrass, Italian [12]; Test C, 125 g ai/ha): 20
Plant response rating, Goosegrass (goosegrass [13]; [23]): 0
Plant response rating, Goosegrass (goosegrass [13]; [24]): 0
Wheat plant response rating (wheat [14]; 500 g ai/ha): 0
Wheat plant response rating (wheat [14]; Test C, 125 g ai/ha): 0
Pigweed, Palmer plant response rating (pigweed, palmer [15]; 500 g ai/ha): 0
Pigweed, Palmer plant response rating (pigweed, palmer [15]; Test C, 125 g ai/ha): 0
Plant response rating, Ducksalad (Flood) (ducksalad): 0
Plant response rating, Barnyardgrass (Flood) (barnyardgrass): 0
Plant response rating, Sedge, Umbrella (Flood) (sedge, umbrella): 0
Goosegrass plant response rating (goosegrass [16]; 500 g ai/ha): 0
Goosegrass plant response rating (goosegrass [16]; Test C, 125 g ai/ha): 0
Plant response rating, Soybean (soybean [17]; [23]): 0
Plant response rating, Soybean (soybean [17]; [24]): 10
Oat, Wild plant response rating (oat, wild [18]; 500 g ai/ha): 0
Oat, Wild plant response rating (oat, wild [18]; Test C, 125 g ai/ha): 0
Corn plant response rating (crop injury, 0 = no effect, 100 = complete kill) at 125 g/ha (corn [19]; Zea mays, post-emergence, 240 h, 125 g ai/ha, 0 to 100 scale (0 no effect, 100 complete control)): 0%
Corn plant response rating (crop injury, 0 = no effect, 100 = complete kill) at 500 g/ha (corn [19]; Zea mays, post-emergence, 240 h, 500 g ai/ha, 0 to 100 scale (0 no effect, 100 complete control)): 0%
Plant response rating, Wheat (wheat [20]; [23]): 0
Plant response rating, Wheat (wheat [20]; [24]): 0
Ragweed plant response rating (ragweed [21]; 500 g ai/ha): 0
Ragweed plant response rating (ragweed [21]; Test C, 125 g ai/ha): 0
Plant response rating, Foxtail, Giant (foxtail, giant [22]; [23]): 0
Plant response rating, Foxtail, Giant (foxtail, giant [22]; [24]): 0

Reference: US20260262643A1, “HERBICIDAL BENZOXAZINES” (FMC CORPORATION, priority 2022, published 2026)
